Key:
[1] = anemic infants; 5 mg/kg of Fe daily for 28 d; cited from earlier work
[2] = adult men; without AA; consumed in 1 or separate whole-maize porridge meals; cited from earlier work
[3] = 9-mo-old, iron-replete children, cited from earlier work; for iron bioavailability from inhibitory WG cereal: PA:Fe 2.2:1, no added AA
[4] = Fractional iron absorption
[5] = iron-deficient infants; AA at a molar ratio of 2:1; cited from earlier work

| Compound | hemoglobin change [1] | iron bioavailability, times higher than FeSO4 [2] | iron bioavailability from inhibitory WG cereal [3] [%] | iron bioavailability from vegetable puree [3] [%] | bioavailability of iron when consumed in WG-oat cereal ([4]; WG-oat cereal with AA, nonsignificant difference between FeBG and Fefum) [%] | iron bioavailability in the noninhibitory reference meal ([4]; refined wheat reference meal with AA) [%] | bioavailability of iron as FeSO4 from refined wheat-based infant cereal, with dephytinization [5] [%] | bioavailability of iron as FeSO4 from refined wheat-based infant cereal, without dephytinization [5] [%] |
| --- | --- | --- | --- | --- | --- | --- | --- | --- |
| NCC(=O)[O-].NCC(=O)[O-].[Fe+2] [FeBG, ferrous bisglycinate] | significant hemoglobin increases | 4−6 times | 5.2 | 9 | – | – | – | – |
| O=C([O-])/C=C/C(=O)[O-].[Fe+2] [Fefum, ferrous fumarate] | – | – | – | – | 9.2 | 12.1 | – | – |
| ferrous sulfate [FeSO4] | significant hemoglobin increases | – | 3.8 | 9.9 | – | – | 8.5 | 8.7 |
